Data on 20 molecules can be found in US5409898A, “Compositions and methods for treating infections caused by organisms sensitive to β-lactam antibiotics” (priority 1994, dated 1995).

One data set has as its system human red blood cells. Kind of data set: Hemolysis assay. It is filed as cell-based.
Another data set concerns E. coli H16. Kind of data set: In vivo protection of neutropenic mice from systemic E. coli H16 infection (C-13 peptide analogs). The source says: The ability of C-13 peptide analogs and cefepime combinations to protect mice from a lethal infection of E. coil was examined. Mice were made neutropenic by an injection of cyclophosphamide and then challenged with E. coli. Mice were then divided into four groups: (1) mice that were given PBS; (2) were given C-13 peptide analogs only; (3) were given cefepime only; and (4) were given a combination of C-13 peptide analogs and cefepime.
Male CrL:CF1 mice were made neutropenic five days prior to bacterial challenge. Neutropenia was induced by subcutaneous injection of 250 mg/kg Cytoxan (cyclophosphamide). The mice were challenged with either 2×10^4 E. coli H16 (Table 4) or 5×10^4 A645AP by intraperitoneal injection. Mice were divided into four treatment groups: (1) PBS; (2) C-13 peptide analog (15 mg/kg); (3) cefepime (0.1 mg/kg); (4) a combination treatment of cefepime and C-13 peptide analog (0.1 mg/kg cefepime and 15 mg/kg C-13 peptide analog) that were combined prior to injection. All injections were made in PBS (0.2 ml) and were administered intramuscularly with each injection in separate legs, one and 3.5 hours after bacterial challenge. The survival of the mice was monitored for ten days and the results analyzed by the Fisher Exact test.

A further data set relates to E. coli ATCC 25922. Kind of data set: Serum bactericidal assay in 40% pooled normal human serum (magainin 2 with antibiotics). Type of data set: cell-based, Escherichia coli. Particulars: for synergy of antibiotic with magainin 2: 1/32, 1/16, 1/8 MIC antibiotic, 200 μg/ml magainin 2, 40% pooled normal human serum.
The subject of data set [1] is endothelial cell proliferation. Particulars: Maione et al., 1990; cited from earlier work.
Data set [2] has as its system E. COLI A645 (ATCC 25922). As to the kind of experiment: In vitro bactericidal activity (ID50) of cationic oligopeptides, serum bactericidal assay. Type of data set: cell-based, Escherichia coli. The procedure:
Cells were diluted without washing to 5×10^4 cells/ml gelatin-veronel buffer (GBV++) and 0.05 ml was added to serum (see section 7.1.3.) in a 1.5 ml Eppendorf vial. For those bacterial cells pregrown in cefepime, the same amount of cefepime that was present during growth was added for both the preparation and examination of bactericidal activity. […] Peptides were diluted in deionized water to make a stock solution of 2 mg/ml and added to the reaction vial to give the appropriate concentration. The total reaction volume was 0.25 ml.

[3] abbreviates: neutropenic mice, 2×10^4 E. coli H16 i.p., peptide 15 mg/kg, cefepime 0.1 mg/kg i.m. at one and 3.5 hours, ten days.

Read-outs that look alike come from different tables or passages of the source. Non-standard residues stand in square brackets, D forms with d. Residues, ends and D or L forms follow the SMILES beside them. No end group written: not given here. Orn = NCCC[C@H](N)C(=O)O

With `CC(C)C[C@H](NC(=O)[C@H](C)N)C(=O)N[C@@H](Cc1ccc(O)cc1)C(=O)N[C@@H](CCCN)C(=O)N[C@@H](CCCN)C(=O)N[C@@H](CC(C)C)C(=O)N[C@@H](CC(C)C)C(=O)N[C@@H](CCCN)C(=O)N[C@@H](CCCN)C(=O)N[C@@H](CC(C)C)C(=O)N[C@@H](CC(C)C)C(=O)N[C@@H](CCCN)C(=O)N[C@@H](CO)C(=O)N[C@@H](C)C(=O)N[C@@H](CCCN)C(=O)N[C@@H](CCCN)C(=O)N[C@@H](CC(C)C)C(=O)NCC(=O)O` [analog II, Ala--Leu--Tyr--Orn--Orn--Leu--Leu--Orn--Orn--Leu--Leu--Orn--Ser--Ala--Orn--Orn--Leu--Gly] (H-ALY[Orn][Orn]LL[Orn][Orn]LL[Orn]SA[Orn][Orn]LG-OH), the “RBC LYSIS (%) (100 μG/ML)” value in the data set on human red blood cells was less than 1%.
With `CC(C)C[C@@H](NC(=O)[C@@H](C)N)C(=O)N[C@H](Cc1ccc(O)cc1)C(=O)N[C@H](CCCCN)C(=O)N[C@H](CCCCN)C(=O)N[C@H](CC(C)C)C(=O)N[C@H](CC(C)C)C(=O)N[C@H](CCCCN)C(=O)N[C@H](CCCCN)C(=O)N[C@H](CC(C)C)C(=O)N[C@H](CC(C)C)C(=O)N[C@H](CCCCN)C(=O)N[C@H](CO)C(=O)N[C@H](C)C(=O)N[C@H](CCCCN)C(=O)N[C@H](CCCCN)C(=O)N[C@H](CC(C)C)C(=O)NCC(=O)O` [analog X, dAla--dLeu--dTyr--dLys--dLys--dLeu--dLeu--dLys--dLys--dLeu--dLeu--dLys--dSer--dAla--dLys--dLys--dLeu--Gly] (H-[dA][dL][dY][dK][dK][dL][dL][dK][dK][dL][dL][dK][dS][dA][dK][dK][dL]G-OH), the “RBC LYSIS (%) (100 μG/ML)” value in the data set on human red blood cells is given as less than 1%.
`C[C@H]1[C@H](NC(=O)/C(=N\OC(C)(C)C(=O)O)c2csc(N)n2)C(=O)N1S(=O)(=O)O` [aztreonam]: in the data set on E. coli H16 (similar experiments with aztreonam), the “mice survived (out of total), aztreonam experiment” value is on record as “one out of 20”. The “synergy of antibiotic with magainin 2” value in the data set on E. coli ATCC 25922 is recorded as “synergistic”.
With `CC(C)(O/N=C(\C(=O)N[C@@H]1C(=O)N2C(C(=O)[O-])=C(C[n+]3ccccc3)CS[C@H]12)c1csc(N)n1)C(=O)O` [ceftazidime], the “synergy of antibiotic with magainin 2” value with E. coli ATCC 25922 is “synergistic”.
`O=C(O)c1cn(C2CC2)c2cc(N3CCNCC3)c(F)cc2c1=O` [ciprofloxacin]: in the data set with E. coli ATCC 25922, the “synergy of antibiotic with magainin 2” value was “neither Amikacin, an aminoglycoside and ciproflaxacin, a quinoline were synergistic”.
`C[C@@H](O)[C@H]1C(=O)N2C(C(=O)O)=C(SCCN=CN)C[C@H]12` [imipenem]: the “synergy of antibiotic with magainin 2” value in the data set with E. coli ATCC 25922 was “synergistic”.
In the case of “AKKLAKLYKKLLKKLLKSAKKLG [analog J, Ala--Lys--Lys--Leu--Ala--Lys--Leu--Tyr--Lys--Lys--Leu--Leu--Lys--Lys--Leu--Leu--Lys--Ser--Ala--Lys--Lys--Leu--Gly]”, in the data set on human red blood cells, the “RBC LYSIS (%) (100 μG/ML)” value is listed as 2.5% and the “change in the amount of RBC lysis” value is recorded as “increased the amount of RBC lysis”.
“ALYKKIIKKLLESAKKLG [analog H, Ala--Leu--Tyr--Lys--Lys--Ile--Ile--Lys--Lys--Leu--Leu--Glu--Ser--Ala--Lys--Lys--Leu--Gly]”: the “RBC LYSIS (%) (100 μG/ML)” value in the data set on human red blood cells turned out to be 1.5%.
The same measure, in the same setting: then “ALYKKLLKKLLESAKKLG [analog F, Ala--Leu--Tyr--Lys--Lys--Leu--Leu--Lys--Lys--Leu--Leu--Glu--Ser--Ala--Lys--Lys--Leu--Gly]”, with less than 1%; and “ALYKKLLKKLLKFAKKFG [analog P, Ala--Leu--Tyr--Lys--Lys--Leu--Leu--Lys--Lys--Leu--Leu--Lys--Phe--Ala--Lys--Lys--Phe--Gly]”, with 21%.
Same read-out and setting: then “ALYKKLLKKLLKKAKKLG [analog KK, Ala--Leu--Tyr--Lys--Lys--Leu--Leu--Lys--Lys--Leu--Leu--Lys--Lys--Ala--Lys--Lys--Leu--Gly]”, with less than 1%.
In the case of “ALYKKLLKKLLKSAKKLG [analog G, Ala--Leu--Tyr--Lys--Lys--Leu--Leu--Lys--Lys--Leu--Leu--Lys--Ser--Ala--Lys--Lys--Leu--Gly]”, in the data set with human red blood cells, the “RBC LYSIS (%) (100 μG/ML)” value was less than 1% and the “change in the amount of RBC lysis” value is given as “no increase”.
Consider “ALYRRLLRRLLRSARRLG [analog HH, Ala--Leu--Tyr--Arg--Arg--Leu--Leu--Arg--Arg--Leu--Leu--Arg--Ser--Ala--Arg--Arg--Leu--Gly]”, for which, in the data set with human red blood cells, the “RBC LYSIS (%) (100 μG/ML)” value was determined as 3%.
On to “C-10: human platelet factor-4 peptide, amino acids 58-67 (PLYKKIIKKL; UniProt P02776 89-98, looked up, fragment)”, for which, in data set [1], the “inhibitory action compared with C-13” value was “Little inhibitory action”.
Take “C-11: human platelet factor-4 peptide, amino acids 58-68 (PLYKKIIKKLL; UniProt P02776 89-99, looked up, fragment)”: the “inhibitory action compared with C-13” value in data set [1] is listed as “less inhibitory”.
On to “C-12: human platelet factor-4 peptide, amino acids 58-69 (PLYKKIIKKLLE; UniProt P02776 89-100, looked up, fragment)”, for which, in data set [1], the “inhibitory action compared with C-13” value was “less inhibitory”.
On to Cecropin, for which the “RBC LYSIS (%) (100 μG/ML)” value with human red blood cells (100 μG/ML peptide, 37° C. for 45 minutes) was less than 1%. For the same molecule, the “ID50 1/4 MIC CEFEPIME NHS” value in data set [2] (1/4 MIC cefepime, NHS) is “.25 µg/mL”. Further, in data set [2] (1/4 MIC cefepime, heat inactivated NHS), the “ID50 1/4 MIC CEFEPIME HI-NHS” value was “.5 µg/mL”. Moreover, in data set [2] (no cefepime, NHS), the “ID50 NO CEFEPIME NHS” value came out at 1 µg/mL. Moreover, the “ID50 NO CEFEPIME HI-NHS” value in data set [2] (no cefepime, heat inactivated NHS) turned out to be 1 µg/mL. Also, in the data set on E. coli H16 (Fisher Exact test), the “protection from systemic E. coli H16 infection” value is “no significant increase in protection”. Besides, in the data set on E. coli H16 (setting [3]), the “% Survival” value is recorded as 20% and the Number--Survived/Total is 2/20.
Consider “KWKLYKKLLKKLLKSAKKLG [analog N, Lys--Trp--Lys--Leu--Tyr--Lys--Lys--Leu--Leu--Lys--Lys--Leu--Leu--Lys--Ser--Ala--Lys--Lys--Leu--Gly]”, for which the “RBC LYSIS (%) (100 μG/ML)” value in the data set on human red blood cells was determined as 7.5%.
In the case of “MGN 1: magainin 1, 23 amino acid cationic oligopeptide from skin secretions of Xenopus laevis (GIGKFLHSAGKFGKAFVGEIMKS; Magainin-1; UniProt P11006 37-59, looked up)”, the “MGN killing of untreated bacteria” value in the data set on E. coli ATCC 25922 (untreated bacteria, 40% PNHS) is “blocked the action”.
Take “PLYKKIIKKLLES [C-13, Pro--Leu--Tyr--Lys--Lys--Ile--Ile--Lys--Lys--Leu--Leu--Glu--Ser]”: in the data set on human red blood cells, the “RBC LYSIS (%) (100 μG/ML)” value is listed as less than 1%.
